The nature of experiment [1]: Binding of fluorescein-labeled peptides to hydroxyapatite nanocrystals (Langmuir isotherm). The settings on record: Langmuir fit; for KA, affinity constant of the peptide for the hydroxyapatite surface: fluorescein-labeled peptide 0-100 μM, 0.3 mg hydroxyapatite, ten minutes. How it is done: FIG. 1: Binding affinities of DSS and DSS variant peptides for hydroxyapatite and tooth surfaces. A-C. Fluorescein-labeled peptides at concentrations ranging from 0-100 μM were incubated with 0.3 mg of hydroxyapatite nanocrystals (specific surface area=100 m^2/g) for ten minutes, followed by removal of the hydroxyapatite by centrifugation. The amount of peptide in the mixture before and after hydroxyapatite removal was determined by Abs480. Isotherms were plotted and fit to the Langmuir equation to extract values for KA, a constant reflecting the affinity of the peptide for the hydroxyapatite surface. D. Sagitally sectioned human teeth were incubated with 12.5 μM 5(6) carboxyfluorescein-labeled 6DSS peptide for ten minutes, followed by rinsing. Peptide binding to tooth surfaces was visualized by Confocal Laser Scanning Microscopy (CLSM) using blue laser illumination (λA=488 nm) and a FITC emission filter. Left side, light colored region: dentin. Right side, dark colored region: enamel.
Four DSS peptides containing two (2DSS, SEQ ID NO:12), four (4DSS, SEQ ID NO:13), six (6DSS, SEQ ID NO:14), or eight(8DSS, SEQ ID NO:15) Asp-Ser-Ser (DSS) repeats were generated. Peptides were labeled with fluorescein, and various concentrations of the labeled peptides (0-100 μM) were mixed with a fixed amount (0.3 mg) of hydroxyapatite nanocrystals having a specific surface area of 100 m^2/g (Berkeley Advanced Biomaterials, Inc.). Samples were incubated for ten minutes, followed by removal of the hydroxyapatite by centrifugation. The amount of peptide in the mixture was measured both before and after hydroxyapatite removal by spectroscopic absorbance at 480 nm (the peak absorbance of the fluorescein label). The amount of peptide bound was calculated by comparing the ratio of the final (Af) and initial (Ai) absorbances to the initial concentration (P0) [Pbound=[…]]. Plots were generated illustrating the amount of peptide bound per m^2 of hydroxyapatite surface area versus concentration of unbound peptide at equilibrium. The resulting isotherms were fit to the Langmuir isotherm (x/m=(KANMaxCeq)/(1+KACeq)) (Calis 1995), which describes the binding activity of a molecule in terms of a combination of binding affinity (KA) and avidity (NMax). KA represents the affinity constant of the peptide for the hydroxyapatite surface. In this equation, x/m represents the molar amount of peptide bound per unit of hydroxyapatite surface area, NMax represents the maximum surface concentration (mol/m^2), and Ceq represents the molar concentration of unbound peptide at equilibrium. The Langmuir isotherm describes the binding of molecules to surfaces with the conditions that 1) all binding sites have the same affinity for the peptide, and 2) the peptide will form a monolayer on the surface but cannot accumulate to higher levels. The excellent fit of the Langmuir isotherm to the experimental data validates these conditions, and these affinity constants were used for comparisons between peptides.

The nature of experiment [2]: Tissue specific binding of DSS peptides and variants in human teeth (CLSM). Conditions: 12.5 μM labeled peptide; for Tissue binding pattern in healthy tooth section: nondemineralized teeth. Here is the method: FIG. 8: Fluorescence micrographs showing tissue specificity in the binding of DSS peptides and variants. Adult human teeth were exposed to 12.5 μM 5(6)-carboxyfluorescein-labeled peptide without demineralization, washed extensively, and imaged by CLSM. For each section, multiple scans were collected and assembled in an automated mode to generate panels of images representing an area of 13×13 mm, sufficient in most cases to encompass the whole section. The peptides used for each section are labeled beneath each panel, and within each panel the tooth is oriented with the root toward the top of the image and the crown toward the bottom. Tissue layers are labeled as follows: RTD=Root Tip Dentin; CPD=Circumpulpal Dentin; MD=Mantle Dentin; P=Pulp Cavity Wall; DEJ=Dentin-Enamel Junction; E=Enamel; BE=Basal Enamel; CE=Cortical Enamel; CL=Carious Lesion; PB=Periodontal Bone.
In order to investigate the tissue specificity of DSS peptide binding to tooth tissue, sections of human teeth were exposed to DSS peptides and variants, then imaged by CLSM as described in Example 2. The peptides utilized for these experiments were 8DSS, 8ASS, 8DAA, 8NAA, 4DSS, 4ESS, 4NSS, 4DTT, 4ETT, 4NTT, and 6DSS. Sagittal sections of human teeth extracted during normal clinical practice were polished and then incubated for ten minutes in a solution of the appropriate 5(6) carboxyfluorescein-labeled peptide (12.5 μM) containing 10 mM NaCl and 50 mM HEPES, pH 7.0. Control samples were prepared without peptide. Samples were washed extensively after treatment and imaged by CLSM using blue laser illumination (λ=488 nm) and a FITC emission filter, with identical camera and microscope settings for each sample. For each section, multiple scans were collected and assembled in an automated mode to generate panels of images representing an area of 13×13 mm, sufficient in most cases to encompass the whole section. […] Significant binding was also seen to the edges of the pulp cavity.

Experiment [3] is described as follows: Preferential binding to carious lesions in teeth (CLSM). The settings on record: labeled peptide, settings optimized per sample. On the set-up: species or system human. How it is done: FIG. 9: Fluorescence micrographs showing specific binding of DSS peptides and variants to carious lesions in teeth. Adult human teeth were exposed to 12.5 uM 5(6)-carboxyfluorescein-labeled peptide without demineralization, washed extensively, and imaged by CLSM. Microscope and camera settings were optimized separately for each sample. […] White traces on the right side of each panel identify the position of the tooth surface, while arrows indicate the position of the stained lesion.
Sections of human teeth containing obvious carious lesions, which consist of demineralized enamel, were polished and exposed to 5(6)-carboxyfluorescein-labeled DSS peptides and variants using the protocol described in Example 2. The sections were washed extensively and imaged by CLSM using blue laser illumination (λ=488 nm) and a FITC emission filter, with microscope and camera settings adjusted for each sample to optimize the signal detected from each peptide. The images were examined to identify the relative levels of peptide binding in healthy versus carious tissue. […] Given their ability to remineralize at sites of enamel degradation (Example 6), they can also be used to initiate remineralization at sites of enamel degradation such as caries or injury sites without causing inappropriate nucleation on healthy tissue surfaces.

No end group written: not given here.

As for “2DSS: peptide containing two Asp-Ser-Ser (DSS) repeats, SEQ ID NO:12 (DSSDSS; calcium binding peptide containing two DSS repeats, 2DSS)”, the “KA, affinity constant of the peptide for the hydroxyapatite surface” value (“KA, affinity constant of the peptide” for short) in experiment [1] is 57,000 M^−1.
Consider “4DSPS: partially phosphorylated four repeat DSS peptide, SEQ ID NO:25 (DSSDSSDSSDSS; also: partially phosphorylated, sites not given here)”, for which, in experiment [1], the “NMax, maximum surface concentration (available binding sites on HA surface)” value is listed as 1.2×10^−7 mol/m^2 and the “KA, affinity constant of the peptide” value is on record as 83,000 M^−1.
Turning to “4DSS: peptide containing four Asp-Ser-Ser (DSS) repeats, SEQ ID NO:13 (DSSDSSDSSDSS; calcium binding peptide containing four DSS repeats, 4DSS, (DSS)-4)”, in experiment [1], the “NMax, maximum surface concentration (available binding sites on HA surface)” value is given as 5.8×10^−8 mol/m^2 and the “KA, affinity constant of the peptide” value is 94,000 M^−1. Besides, in experiment [2], the “Tissue binding pattern in healthy tooth section” value (shortened to “Tissue binding pattern”) is “bound primarily to the mantle dentin”. Also, in experiment [3], the “Specificity of binding to carious lesions versus surrounding healthy enamel” value was “highly specific binding to carious lesions” and the “Strength of staining of carious lesions” value is “exceptionally strong staining of carious lesions”.
Regarding “4DTT: four repeat peptide containing more sterically hindered hydroxyl groups at second and third positions, SEQ. ID NO. 17 (DTTDTTDTTDTT; variant DSS four repeat peptide containing more sterically hindered hydroxyl groups at second and third positions, 4DTT)”, the “KA, affinity constant of the peptide” value in experiment [1] was 161,000 M^−1. Further, the “Tissue binding pattern” value in experiment [2] is “binding patterns similar to those of 4DSS and 4ESS, though at sharply reduced levels”.
As to “4ESS: four repeat peptide containing a longer sidechain at the first position, SEQ. ID NO. 16 (ESSESSESSESS; variant DSS four repeat peptide containing longer sidechain at first position, 4ESS)”, in experiment [1], the “KA, affinity constant of the peptide” value is 81,000 M^−1. For the same substance, in experiment [3], the “Specificity of binding to carious lesions versus surrounding healthy enamel” value is given as “highly specific binding to carious lesions” and the “Strength of staining of carious lesions” value is listed as “exceptionally strong staining of carious lesions”.
With “4ETT: four repeat peptide containing more sterically hindered hydroxyl groups at second and third positions, SEQ. ID NO. 19 (ETTETTETTETT; variant DSS four repeat peptide containing more sterically hindered hydroxyl groups at second and third positions, 4ETT)”, in experiment [1], the “KA, affinity constant of the peptide” value is recorded as 61,000 M^−1. In addition, the “Tissue binding pattern” value in experiment [2] is “binding patterns similar to those of 4DSS and 4ESS, though at sharply reduced levels”. The “Specificity of binding to carious lesions versus surrounding healthy enamel” value in experiment [3] is “highly specific binding to carious lesions”.
For “4NAA: label printed only in b88, not defined; probably a misprint (NAANAANAANAA; variant DSS four repeat peptide lacking hydroxyl group at seond and third positions, 4NAA)”, the “Strength of staining of carious lesions” value in experiment [3] was “exceptionally strong staining of carious lesions”.
Regarding “4NSS: four repeat peptide lacking a charged group at the first position, SEQ. ID NO. 20 (NSSNSSNSSNSS; variant DSS four repeat peptide lacking negatively charged group at first position, 4NSS)”, in experiment [1], the “KA, affinity constant of the peptide” value is on record as 41,000 M^−1. Besides, in experiment [3], the “Specificity of binding to carious lesions versus surrounding healthy enamel” value is given as “highly specific binding to carious lesions”.
Take “4NTT: four repeat peptide containing more sterically hindered hydroxyl groups at second and third positions, SEQ. ID NO. 18 (NTTNTTNTTNTT; variant DSS four repeat peptide containing more sterically hindered hydroxyl groups at second and third positions, 4NTT)”: the “KA, affinity constant of the peptide” value in experiment [1] is 18,000 M^−1. In experiment [2], the “Binding to fragment of periodontal bone attached to the sample” value was “strong binding” and the “Tissue binding pattern” value was “very low levels of binding to the healthy tooth tissue”.
In the case of “8ASS: eight repeat peptide lacking a charged group at the first position, SEQ. ID NO. 21 (ASSASSASSASSASSASSASSASS; variant DSS eight repeat peptide lacking negatively charged group at first position, 8ASS)”, in experiment [1], the “KA, affinity constant of the peptide” value was 170,000 M^−1. In experiment [3], the “Specificity of binding to carious lesions versus surrounding healthy enamel” value is given as “highly specific binding to carious lesions” and the “Strength of staining of carious lesions” value is listed as “exceptionally strong staining of carious lesions”.
Take “8DAA: eight repeat peptide lacking hydroxyl groups at the second and third positions, SEQ. ID NO. 22 (DAADAADAADAADAADAADAADAA; variant DSS eight repeat peptide lacking hydroxyl group at seond and third positions, 8DAA)”: the “KA, affinity constant of the peptide” value in experiment [1] is recorded as 300,000 M^−1. Moreover, the “Tissue binding pattern” value in experiment [2] is “primary binding to the root tip dentin and cortical enamel, as well as to the dentin-enamel junction and the pulp cavity wall”. In experiment [3], the “Specificity of binding to carious lesions versus surrounding healthy enamel” value was “highly specific binding to carious lesions” and the “Strength of staining of carious lesions” value is given as “exceptionally strong staining of carious lesions”.

These data come from patent US20090098050A1, “CALCIUM BINDING PEPTIDES” (THE REGENTS OF THE UNVERSITY OF CALIFORNIA, priority 2005, published 2009).
